# Source: the supplement of paper PMC10307832
# Experiments:
# Assay in all cases: relative viability (nuclei count vs DMSO), 5 days (fraction); higher = more cells survive
# [1] = test system: H3255
# Outline: (§1)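 Relative viability equals treated-well nuclei counts divided by vehicle-well nuclei counts. Counts came from 4× images of lung cancer cell lines grown in 1536-well plates for 5 days after pin-tool dosing on the day after seeding. Dosing used one drug alone or a fixed anchor-drug dose plus five library-drug doses (not always all listed) in √10 steps, and values are medians of duplicate plates.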
# [2] = test system: NCI-H1944
# Outline: as §1
# [3] = test system: NCI-H1915
# Outline: as §1
# [4] = test system: NCI-H661
# Outline: as §1
# [5] = test system: ABC-1
# Outline: as §1
# [6] = test system: NCI-H441
# Outline: as §1
# [7] = test system: NCI-H1650
# Outline: as §1
# [8] = test system: NCI-H2087
# Outline: as §1
# [9] = test system: NCI-H2023
# Outline: as §1
# [10] = test system: BEN
# Outline: as §1
# [11] = test system: CAL-12T
# Outline: as §1
# [12] = test system: 201T
# Outline: as §1
# [13] = test system: NCI-H460
# Outline: as §1
# [14] = test system: NCI-H596
# Outline: as §1
# [15] = test system: NCI-H1651
# Outline: as §1
# [16] = test system: NCI-H520
# Outline: as §1
# [17] = test system: LC-2-ad
# Outline: as §1
# [18] = test system: NCI-H650
# Outline: as §1
# [19] = test system: NCI-H727
# Outline: as §1
# [20] = test system: LCLC-97TM1
# Outline: as §1
# [21] = test system: PC-3 [JPC-3]
# Outline: as §1
# [22] = test system: A-427
# Outline: as §1
smiles,measurement,setting,value
COc1cc2nccc(Oc3ccc(NC(=O)Nc4cc(C)on4)c(Cl)c3)c2cc1OC [Tivozanib] + N=C(N)NC(=N)NCCc1ccccc1 [Phenformin] (partner 250 µM),relative viability,[1]; first compound 0.005 µM,0.332
same,relative viability,[1]; first compound 0.01581 µM,0.333
same,relative viability,[1]; first compound 0.05 µM,0.354
same,relative viability,[1]; first compound 0.1581 µM,0.339
same,relative viability,[1]; first compound 0.5 µM,0.351
same,relative viability,[2]; first compound 0.005 µM,0.189
same,relative viability,[2]; first compound 0.01581 µM,0.202
same,relative viability,[2]; first compound 0.05 µM,0.208
same,relative viability,[2]; first compound 0.1581 µM,0.21
same,relative viability,[2]; first compound 0.5 µM,0.188
same,relative viability,[3]; first compound 0.005 µM,0.365
same,relative viability,[3]; first compound 0.01581 µM,0.388
same,relative viability,[3]; first compound 0.05 µM,0.317
same,relative viability,[3]; first compound 0.1581 µM,0.373
same,relative viability,[3]; first compound 0.5 µM,0.309
same,relative viability,[4]; first compound 0.005 µM,0.264
same,relative viability,[4]; first compound 0.01581 µM,0.277
same,relative viability,[4]; first compound 0.05 µM,0.277
same,relative viability,[4]; first compound 0.1581 µM,0.278
same,relative viability,[4]; first compound 0.5 µM,0.249
same,relative viability,[5]; first compound 0.005 µM,0.236
same,relative viability,[5]; first compound 0.01581 µM,0.246
same,relative viability,[5]; first compound 0.05 µM,0.268
same,relative viability,[5]; first compound 0.1581 µM,0.201
same,relative viability,[5]; first compound 0.5 µM,0.24
same,relative viability,[6]; first compound 0.005 µM,0.797
same,relative viability,[6]; first compound 0.01581 µM,0.782
same,relative viability,[6]; first compound 0.05 µM,0.823
same,relative viability,[6]; first compound 0.1581 µM,0.881
same,relative viability,[6]; first compound 0.5 µM,0.735
same,relative viability,[7]; first compound 0.005 µM,0.454
same,relative viability,[7]; first compound 0.01581 µM,0.515
same,relative viability,[7]; first compound 0.05 µM,0.486
same,relative viability,[7]; first compound 0.1581 µM,0.497
same,relative viability,[7]; first compound 0.5 µM,0.353
same,relative viability,[8]; first compound 0.005 µM,0.416
same,relative viability,[8]; first compound 0.01581 µM,0.444
same,relative viability,[8]; first compound 0.05 µM,0.496
same,relative viability,[8]; first compound 0.1581 µM,0.407
same,relative viability,[8]; first compound 0.5 µM,0.415
same,relative viability,[9]; first compound 0.005 µM,0.408
same,relative viability,[9]; first compound 0.01581 µM,0.421
same,relative viability,[9]; first compound 0.05 µM,0.426
same,relative viability,[9]; first compound 0.1581 µM,0.43
same,relative viability,[9]; first compound 0.5 µM,0.377
same,relative viability,[10]; first compound 0.005 µM,0.25
same,relative viability,[10]; first compound 0.01581 µM,0.279
same,relative viability,[10]; first compound 0.05 µM,0.224
same,relative viability,[10]; first compound 0.1581 µM,0.314
same,relative viability,[10]; first compound 0.5 µM,0.234
same,relative viability,[11]; first compound 0.005 µM,0.538
same,relative viability,[11]; first compound 0.01581 µM,0.554
same,relative viability,[11]; first compound 0.05 µM,0.494
same,relative viability,[11]; first compound 0.1581 µM,0.625
same,relative viability,[11]; first compound 0.5 µM,0.558
same,relative viability,[12]; first compound 0.005 µM,0.447
same,relative viability,[12]; first compound 0.01581 µM,0.405
same,relative viability,[12]; first compound 0.05 µM,0.423
same,relative viability,[12]; first compound 0.1581 µM,0.445
same,relative viability,[12]; first compound 0.5 µM,0.469
same,relative viability,[13]; first compound 0.005 µM,0.491
same,relative viability,[13]; first compound 0.01581 µM,0.537
same,relative viability,[13]; first compound 0.05 µM,0.509
same,relative viability,[13]; first compound 0.1581 µM,0.547
same,relative viability,[13]; first compound 0.5 µM,0.503
same,relative viability,[14]; first compound 0.005 µM,0.744
same,relative viability,[14]; first compound 0.01581 µM,0.699
same,relative viability,[14]; first compound 0.05 µM,0.777
same,relative viability,[14]; first compound 0.5 µM,0.798
same,relative viability,[15]; first compound 0.005 µM,0.297
same,relative viability,[15]; first compound 0.01581 µM,0.425
same,relative viability,[15]; first compound 0.05 µM,0.314
same,relative viability,[15]; first compound 0.1581 µM,0.36
same,relative viability,[15]; first compound 0.5 µM,0.315
same,relative viability,[16]; first compound 0.005 µM,0.57
same,relative viability,[16]; first compound 0.01581 µM,0.539
same,relative viability,[16]; first compound 0.05 µM,0.631
same,relative viability,[16]; first compound 0.1581 µM,0.311
same,relative viability,[16]; first compound 0.5 µM,0.348
same,relative viability,[17]; first compound 0.005 µM,0.593
same,relative viability,[17]; first compound 0.01581 µM,0.548
same,relative viability,[17]; first compound 0.05 µM,0.579
same,relative viability,[17]; first compound 0.1581 µM,0.514
same,relative viability,[17]; first compound 0.5 µM,0.387
same,relative viability,[18]; first compound 0.005 µM,0.395
same,relative viability,[18]; first compound 0.01581 µM,0.457
same,relative viability,[18]; first compound 0.05 µM,0.472
same,relative viability,[18]; first compound 0.1581 µM,0.39
same,relative viability,[18]; first compound 0.5 µM,0.333
same,relative viability,[19]; first compound 0.005 µM,0.664
same,relative viability,[19]; first compound 0.01581 µM,0.489
same,relative viability,[19]; first compound 0.05 µM,0.439
same,relative viability,[19]; first compound 0.1581 µM,0.403
same,relative viability,[19]; first compound 0.5 µM,0.558
same,relative viability,[20]; first compound 0.005 µM,0.423
same,relative viability,[20]; first compound 0.01581 µM,0.49
same,relative viability,[20]; first compound 0.05 µM,0.417
same,relative viability,[20]; first compound 0.1581 µM,0.473
same,relative viability,[20]; first compound 0.5 µM,0.395
same,relative viability,[21]; first compound 0.005 µM,0.477
same,relative viability,[21]; first compound 0.01581 µM,0.468
same,relative viability,[21]; first compound 0.05 µM,0.516
same,relative viability,[21]; first compound 0.1581 µM,0.427
same,relative viability,[21]; first compound 0.5 µM,0.481
same,relative viability,[22]; first compound 0.005 µM,0.337
same,relative viability,[22]; first compound 0.01581 µM,0.308
same,relative viability,[22]; first compound 0.05 µM,0.363
same,relative viability,[22]; first compound 0.1581 µM,0.315
same,relative viability,[22]; first compound 0.5 µM,0.241
